The text below walks through data of article PMC6212493, “Development and evaluation of a novel series of Nitroxoline-derived BET inhibitors with antitumor activity in renal cell carcinoma” (Oncogenesis, 2018).

One data set addresses T1, BRD4-BD1 (Homo sapiens, UniProt O60885).
T1 construct: with the first bromodomain of BRD4 (BRD4-BD1) were solved; 6xHis (N); made in house; host or cells: Escherichia coli BL21 (DE3)
Put plainly: ALPHA screen assay, displacement of BRD4-BD1 from acetylated H4 peptide. The class given is binding. As for the experimental part: (§1) Amplified Luminescent Proximity Homogeneous Assay (ALPHA) screen assay was used to determine the IC50 of compounds for competitive displacement of BRD4_BD1 from the acetylated H4 peptide. As previously described, 2.5 μL compounds and 2.5 μL proteins were added into each well of 384-well plates and incubated at room temperature for 15 min. To start the reaction, 5 μL substrate peptide was added and incubated at room temperature for 5 min. Subsequently, 5 µL nickel-chelate acceptor beads (PerkinElmer) and 5 µL streptavidin-conjugate donor beads (PerkinElmer) were added. After 60 min incubation at room temperature, data were collected by EnVision (PerkinElmer) and analyzed using GraphPad Prism 5.0.

For a further data set, the system named is RCTEC normal cell line. Put plainly: Viability of normal cells, RCTEC. The class given is cell-based. To be noted: at similar concentrations as RCC cells. As for the experimental part: (§2) RCC cells 786-O, 769-P, A498, and ACHN were purchased from ATCC. All the cells were authenticated by STR profiling at Genesky Biopharma Technology and tested for Mycoplasma contamination. […] For the viability assay, cells were plated on 96-well plates at the density of 0.5–1 × 10^3/well. After cell attachment, various concentrations of compounds and DMSO were added, the plates were incubated for 7 days. After the addition of 10 μL Alamar Blue and incubation for 3 h at 37 °C, fluorescent signals were measured with a PE Envision reader, at the wavelength of 544 nm for excitation and 590 nm for emission. Finally, the percentages of viability were calculated by normalizing against the control.

Data set [1] has as its system c-Myc, Bcl-2, and CDK6 mRNA expression. Put plainly: Real-time PCR of BET downstream genes in RCC cells. Type of data set: cell-based. The following applies: relative to DMSO control, normalized to β2-microglobulin. As for the experimental part:
Trizol reagent (Vazyme) was used to extract total RNA of ccRCC tumor samples or cells following manufacturer’s instructions. Synthesis of complementary DNA (cDNA) was done using the HiScript® II RT SuperMix (Vazyme). StepOnePlus (Life Technologies) apparatus was applied to carry out quantitative real-time PCR (qPCR). Gene-specific data were normalized to β2-microglobulin and are calculated as relative expression compared to DMSO or control group using the ΔΔCT method.
Background: Real-time PCR tracks product formation cycle by cycle.

The subject of a further data set is BET family proteins. Put plainly: In vitro selective assay at 3 μM, BET proteins. The class given is binding. As for the experimental part:
(§3) First, we compared the inhibitory activity of BDF-1253 to displace BRD4-BD1 or BRD4-BD2 domain from acetylated H4 peptide using ALPHA assay. […] An in vitro selective assay was also conducted to examine the effect of BDF-1253 at 3 μM on the other BET proteins, other BRD proteins out of BET family (SMACAR, BPTF, PCAF) as well as several epigenetic enzymes.
(§4) Determination of inhibition against BET family members, bromodomain proteins out of the BET family as well as several epi-enzymes by BDF-1253 at 3 μM.

In a further data set the test system is 786-O xenograft tumor. As to the kind of experiment: RCC xenograft mice model (786-O). The class given is in vivo, nude mice. To be noted: 50 mg/kg intraperitoneally daily. As for the experimental part: All animal experiments were approved by IACUC (Institutional Animal Care and Use Committee) of Shanghai Institute of Materia Medica. Four to six-week-old female nude mice purchased from Silaike Laboratory Animal Ltd. were subcutaneously inoculated with 5 × 10^6 786-O cells in 100 μL PBS. All nude mice were raised under pathogen-free conditions to achieve tumor growth. Sample size of each group (n = 7) was chosen following the instruction by http://www.biomath.info. As long as the tumor sizes reached palpable stage, the mice were randomly divided into two groups (n = 7/group). One group is for compound BDF-1253 treatment trials and the other group is the control group. […] These mice were treated intraperitoneally with either diluted compound BDF-1253 of 50 mg/kg or vehicle on a daily basis. Tumor volume was evaluated every 3 days using Vernier calipers and calculated with the equation: length × width^2 × 0.5. Animals were killed when their tumors reached 2 cm^3.

In a further data set the test system is ACHN cells. Put plainly: Alamar Blue viability assay, ACHN. Type of data set: cell-based. The following applies: Homo sapiens, 168 h, treatment for 7 days, read-out: IC50, cell viability. As for the experimental part: as §2
For data set [2], the system named is non-BET BRD-containing proteins (SMACAR, BPTF, PCAF) and epigenetic enzymes. Put plainly: In vitro selective assay at 3 μM, non-BET bromodomain proteins and epi-enzymes. The class given is biochemical. As to the method: as §3, §4
The next data set deals with A498 cells. As to the kind of experiment: Alamar Blue viability assay, A498. The class given is cell-based. The following applies: Homo sapiens, 168 h; A498, treatment for 7 days; read-out: IC50, cell viability. As for the experimental part: as §2
On the technique in general: Resazurin is reduced to fluorescent resorufin, in cell work by metabolically active cells.

The target of the next data set is BRD4-BD2 (Homo sapiens, UniProt O60885). Put plainly: ALPHA assay, displacement of BRD4-BD2 from acetylated H4 peptide. Type of data set: binding. As for the experimental part:
as §3, §1
IC50 determination of BDF-1253 against BRD4-BD1 and BRD4-BD2 using Alpha Screen method.

The next data set has as its system 786-O cells. Put plainly: Alamar Blue viability assay, 786-O. The class given is cell-based. As to the method: as §2
The next data set concerns HUVEC normal cell line. As to the kind of experiment: Viability of normal cells, HUVEC. Type of data set: cell-based. The following applies: at similar concentrations as RCC cells.
For data set [3], the system named is c-Myc, Bcl-2, Bax, cleaved-PARP, cleaved-Caspase3 protein abundance. As to the kind of experiment: Western blot of BET downstream and apoptosis proteins in RCC cells. The following applies: immunoblot. The class given is cell-based. As for the experimental part: Protein lysates from tissue samples were obtained using RIPA buffer supplemented with protease and phosphatase inhibitors. For the cellular samples, cells were collected following treatment with DMSO and compounds. Western blot was performed as previously described.[25] The primary antibodies were BRD2 (A302-583A, Bethyl), BRD3 (A302-368A, Bethyl), BRD4 (A301-985A, Bethyl), MYC (sc-40, Santa Cruz Biotechnology), BCL2 (ab7973, Abcam), BAX (ab32503, Abcam), cleaved PARP (Cell Signaling, #5625). The secondary antibodies were anti-rabbit IgG (Jackson, 111-035-003) or anti-mouse IgG (Jackson). HRP substrate (GE Healthcare) was used for the detection of chemical luminescence, and FUJIFILM LAS-4000 was used for image acquisition.

In another data set the test system is Caki cells. Put plainly: Alamar Blue viability assay, Caki. To be noted: 168 h, treatment for 7 days, read-out: IC50, cell viability. Type of data set: cell-based.

The structures appear in SMILES notation. pIC50: −log10 of the molar value. “Also recorded” adds a separate entry of the source.

One may read the pIC50 as the IC50 on a negative log10 scale, so that one unit is a factor of ten. For the molecule `O=[N+]([O-])c1ccc(O)c2ncccc12` [Nitroxoline], the pIC50 at BRD4-BD1 was 6.01.

Consider `CC(=O)Nc1cc(Cn2ccnc2)c2cccc(O)c2n1` [BDF-1253], for which the “inhibition of normal cell viability” value in the data set on RCTEC normal cell line and in the data set on HUVEC normal cell line was “little inhibition” each time. For the same molecule, the “mRNA expression levels of c-Myc, Bcl-2, and CDK6 (BET target gene transcription)” value in data set [1] is “inhibited expression; also recorded: dose-dependently decreased”. For the same molecule, in the data set with BET family proteins, the “effect on BET family proteins” value is on record as “selectively inhibited BET family proteins”. Besides, the “c-Myc expression in tumors (immunoblotting)” value in the data set with 786-O xenograft tumor is listed as “reduced”. Moreover, the tumor size result in the data set with 786-O xenograft tumor (21 days, 786-O xenograft) is on record as “remarkable reduction in tumor size”. For the same molecule, the “body weight / toxicity” value in the data set with 786-O xenograft tumor (during dosing) is “no obvious loss of body weight or toxicity”. Also, the pIC50 in the data set on ACHN cells is 5.68; in the data set on A498 cells it was 5.86; at BRD4-BD1, 6.54; in the data set with 786-O cells (Homo sapiens, 786-0, 168 h, 786-O, treatment for 7 days, read-out: IC50, cell viability), 5.82; with Caki cells, 5.45. The “effect on non-BET BRD-containing proteins or other epigenetic enzymes” value in [2] is listed as “minimal effects”. The “selectivity for BRD4-BD1 or BRD4-BD2 domain” value at BRD4-BD2 is given as “no obvious selectivity”. In addition, in the data set on 786-O cells (RCC 786-o cells, in words), the “effect on RCC cell proliferation” value is “inhibited the proliferation”. Moreover, the “PRAP and Caspase3 cleavage and expression of pro-apoptotic protein Bax” value in data set [3] is “increased PRAP and Caspase3 cleavage and elevated expression of pro-apoptotic protein Bax”. Besides, in data set [3], the “protein abundance of c-Myc, Bcl-2 (BRD4 downstream effectors)” value is on record as “reduced after the treatment, in a dose-dependent manner”.
